# In US20230203014A1, “NOVEL F[…] FOR LABELING TUMOR TISSUE” (PROIMAGING, priority 2020, published 2023):
# Key:
# [1] = test system: orthotopic pancreatic adenocarcinoma; experiment: ex vivo fluorescence imaging of pancreatic tumors; assay type: in vivo, mouse; settings: control dye
# Method: A model of orthotopic pancreatic adenocarcinoma in the mouse was developed. The tumoral cells were amplified subcutaneously in SCID mice and the resultant fragments were then implanted surgically in the pancreas of irradiated BALB/c nude mice.
# The development of the tumor was monitored in vivo by MRI (4.7T, PharmaScan, Bruker Biospin) at three time points, D14, 28 and 36. The animals were subjected to […] in order to minimize autofluorescence. Fluorescent imaging was performed with a charge-coupled device (CCD) camera (PhotonRT, BiospaceLab) with excitation at 700 nm and an emission filter at 770 nm.
# After sessions of in vivo imaging performed at 2 h, 48 h and 164 h, ex vivo fluorescent images were acquired. The fluorescent compounds according to the invention 2 (CJ215) and CJ319 (the structure of which is detailed below) were injected intravenously at 2 mg/kg, 39 days after implantation of the tumor fragments, whereas the average volumes of the tumors were about 70 mm^3. Indocyanine green (ICG), a dye widely used in the per-operative imaging of tumors, was included as a control.
# [2] = test system: 4T1-Dendra2 mammary tumors; experiment: in vivo imaging of mammary tumors (fluorescence, IVIS Spectrum); set-up: species or system mice; settings: starting from 48 h post-injection
# Source text: ICG (or indocyanine green / Infracyanine) is a fluorescent agent of the prior art, already approved for use in humans for evaluation of cardiac and hepatic function, as well as in ophthalmology, for retinal diseases. It is also undergoing evaluation in many clinical trials throughout the world for guidance of surgery during tumoral exereses, or mapping of the ganglia draining the tumors, by near infrared imaging. ICG was compared with compound (2) according to the invention, synthesis of which is described above in example 2; this compound is called CJ215 in this study.
# The study included 30 mice in total, distributed in three groups. The tumoral grafts were all carried out with 50 000 cells 4T1-Dendra2 /20 µl injected in 2 mammary glands contralaterally for each of the mice. […]
# The variation of the intensity of the fluorescence signals recorded for each of the biomarkers over time was evaluated from the microscopy image. The capacity of the two markers for producing a signal specifically localized to the tumor was assessed quantitatively by calculating the ratio of the specific signal associated with the tumor to the nonspecific signal in the surrounding tissues. […]
# The quantitative measurements were performed on the raw images, which had not been deconvoluted. […]
smiles,measurement,setting,value
"CC1(C)C(/C=C/C=C/C=C/C=C2\N(CCCCS(=O)(=O)O)c3ccc4ccccc4c3C2(C)C)=[N+](CCCCS(=O)(=O)[O-])c2ccc3ccccc3c21 [ICG, indocyanine green]",specific accumulation in the pancreas or the tumor,[1],did not show any specific accumulation
same,observability of the fluorescent signal in the tumors,[2],no longer observable in the tumors
